Reference: publication PMC9138505, “Small Molecule 20S Proteasome Enhancer Regulates MYC Protein Stability and Exhibits Antitumor Activity in Multiple Myeloma” (Biomedicines, 2022)
“And” between values parts separate entries of the source, which are not always exact repeats. Identical values can stand only once.

System: RPMI-8226 cells
Assay: Gene expression profiling, NanoString nCounter PanCancer Pathways Panel, ROSALIND analysis
Assay type: cell-based, human
Conditions: RPMI-8226, TCH-165 samples 1-3
Method: RPMI-8226 cells were treated with vehicle or TCH-165 (10 μM) for 4 h. Total RNA was obtained using the mirVana miRNA Isolation Kit, with phenol (Thermofisher Scientific; AM1560; Waltham, MA, USA). Total RNA was quantified by Qubit (Thermofisher Scientific; Q32855; Waltham, MA, USA). and gene expression was evaluated against the nCounter® PanCancer Pathways Panel^TM according to the standard NanoString protocol.
Data were analyzed by ROSALIND® [36] with a hyperscale architecture developed by ROSALIND, Inc. (San Diego, CA, USA). Normalization, fold changes and p-values were calculated using criteria provided by NanoString. ROSALIND follows the nCounter® Advanced Analysis protocol of dividing counts within a lane by the geometric mean of the normalizer probes from the same lane. Housekeeping probes to be used for normalization are selected based on the geNorm algorithm, as implemented in the NormqPCR R library. Fold changes and p-values are calculated using the fast method as described in the nCounter Advanced Analysis 2.0 User Manual. The p-value adjustment is performed using the Benjamini–Hochberg method of estimating false discovery rates (FDR). Clustering of genes for the final heatmap of differentially expressed genes was done using the PAM (Partitioning Around Medoids) method using the fpc R library. Hypergeometric distribution was used to analyze the enrichment of pathways, gene ontology, domain structure and other ontologies. The topGO R library was used to determine local similarities and dependencies between GO terms in order to perform Elim pruning correction. Several database sources were referenced for enrichment analysis, including Interpro [40], NCBI [41], MSigDB [42, 43], REACTOME [44], WikiPathways. Enrichment was calculated relative to a set of background genes relevant to the experiment.

CCOC(=O)[C@]1(c2ccccc2)N=C(c2ccc(OC)cc2)N(Cc2ccccc2)[C@@H]1c1ccc(NCc2ccccc2)cc1 [TCH-165]
CDKN2A normalized gene expression: 7.059 and 6.817 and 7.045 | CDKN2B normalized gene expression: 5.827 and 5.402 and 5.787 | CDKN2C normalized gene expression: 2.401 and 2.3768 and 2.653 | CDKN2D normalized gene expression: 6.667 and 6.808 and 7.091 | CEBPA normalized gene expression: 4.308 and 4.029 and 4.291 | CEBPE normalized gene expression: 3.723 and 3.739 and 3.291 | CHAD normalized gene expression: 4.986 and 5.093 and 4.805 | CHEK1 normalized gene expression: 9.816 and 9.813 (2×) | CHEK2 normalized gene expression: 8.6438 and 8.491 and 8.618 | CHUK normalized gene expression: 8.745 and 8.67 and 8.685 | CIC normalized gene expression: 6.793 and 6.427 and 6.731 | CLCF1 normalized gene expression: 3.723 and 4.2133 and 3.184 | CNTFR normalized gene expression: 4.723 and 5.093 and 4.653 | COL1A1 normalized gene expression: 4.649 and 4.524 and 3.943 | COL1A2 normalized gene expression: 3.401 and 3.154 and 4.0068 | COL2A1 normalized gene expression: 6.015 and 6.817 and 6.494 | COL3A1 normalized gene expression: 4.86 and 4.093 and 4.731 | COL4A3 normalized gene expression: 6.182 and 5.798 and 6.156 | COL4A4 normalized gene expression: 3.208 and 3.739 and 4.613 | COL4A5 normalized gene expression: 4.571 and 3.962 and 3.876 | COL4A6 normalized gene expression: 3.208 and 3.476 and 3.0682 | COL5A1 normalized gene expression: 6.156 and 5.3768 and 5.823 | COL5A2 normalized gene expression: 4.649 and 4.524 and 4.184 | COL11A1 normalized gene expression: 4.793 and 4.029 and 4.184 | COL11A2 normalized gene expression: 3.571 and 3.029 and 2.483 | COMP normalized gene expression: 3.571 and 4.093 and 4.0682 | CREB5 normalized gene expression: 6.467 and 6.324 and 6.437 | CREBBP normalized gene expression: 5.488 and 4.855 and 5.156 | CSF1R normalized gene expression: 3.401 and 3.739 and 3.653 | CSF2 normalized gene expression: 3.86 and 4.029 and 3.291 | CSF3R normalized gene expression: 4.571 and 3.962 and 4.39 | CSF3 normalized gene expression: 4.208 and 3.739 and 3.805 | CTNNB1 normalized gene expression: 11.1942 and 11.0314 and 10.9756 | CUL1 normalized gene expression: 11.4237 and 11.3932 and 11.3628 | CXCL8 normalized gene expression: 7.908 and 8.053 and 8.0531 | CYLD normalized gene expression: 9.829 and 9.692 and 9.711 | DAXX normalized gene expression: 9.74 and 9.747 and 9.706 | DDB2 normalized gene expression: 8.97 and 9.039 and 9.005 | DDIT3 normalized gene expression: 11.9124 and 11.8557 and 11.855 | DDIT4 normalized gene expression: 9.959 and 9.961 and 9.982 | DKK1 normalized gene expression: 5.259 and 4.699 and 4.769 | DKK2 normalized gene expression: 5.488 and 4.657 and 4.805 | DKK4 normalized gene expression: 4.986 and 4.855 and 4.975 | DLL1 normalized gene expression: 4.308 and 4.029 and 3.5707 | DLL3 normalized gene expression: 5.101 and 4.427 and 4.5707 | DLL4 normalized gene expression: 5.401 and 4.817 and 5.211 | DNMT1 normalized gene expression: 10.7929 and 10.7224 and 10.7359 | DNMT3A normalized gene expression: 7.355 and 7.311 and 7.414 | DTX1 normalized gene expression: 5.156 and 5.402 and 5.592 | DTX4 normalized gene expression: 5.793 and 5.996 and 5.9095 | DUSP2 normalized gene expression: 6.378 and 6.364 and 6.623 | DUSP4 normalized gene expression: 7.667 and 7.581 and 7.494 | DUSP5 normalized gene expression: 10.8611 and 10.8321 and 10.8236 | DUSP6 normalized gene expression: 8.008 and 8.128 and 8.003 | DUSP8 normalized gene expression: 6.876 and 6.44 and 6.56 | DUSP10 normalized gene expression: 7.221 and 7.177 and 7.1906 | E2F1 normalized gene expression: 9.135 and 9.126 and 9.063 | E2F5 normalized gene expression: 9.349 and 9.291 and 9.221 | EFNA1 normalized gene expression: 6.283 and 5.2133 and 5.39 | EFNA2 normalized gene expression: 4.924 and 5.2133 and 5.0068 | EFNA3 normalized gene expression: 8.052 and 8.008 and 8.0531 | EFNA5 normalized gene expression: 5.649 and 4.739 and 4.943 | EGF normalized gene expression: 4.86 and 4.569 and 5.0682 | EGFR normalized gene expression: 5.892 and 5.524 and 5.461 | EIF4EBP1 normalized gene expression: 10.6929 and 10.6602 and 10.7353 | ENDOG normalized gene expression: 9.908 and 9.9873 and 9.891 | EP300 normalized gene expression: 9.491 and 9.463 and 9.424 | EPHA2 normalized gene expression: 3.208 and 2.891 and 1.805 | EPO normalized gene expression: 5.101 and 4.324 and 4.483 | EPOR normalized gene expression: 7.259 and 7.147 and 7.1271 | ERBB2 normalized gene expression: 6.044 and 5.427 and 5.291 | ERCC2 normalized gene expression: 6.924 and 6.657 and 6.5707 | ERCC6 normalized gene expression: 6.509 and 6.581 and 6.5707 | ETS2 normalized gene expression: 9.802 and 9.726 and 9.794 | ETV1 normalized gene expression: 9.48 and 9.485 and 9.458 | ETV4 normalized gene expression: 7.978 and 7.949 and 7.741 | ETV7 normalized gene expression: 4.723 and 4.962 and 4.528 | EYA1 normalized gene expression: 7.74 and 7.85 and 7.863 | EZH2 normalized gene expression: 10.3563 and 10.2507 and 10.2954 | FANCA normalized gene expression: 7.073 and 6.808 and 7.015 | FANCB normalized gene expression: 7.62 and 7.291 and 7.576 | FANCC normalized gene expression: 7.86 and 7.614 and 7.764 | FANCE normalized gene expression: 7.61 and 7.608 and 7.587 | FANCF normalized gene expression: 8.337 and 8.334 and 8.268 | FANCG normalized gene expression: 7.571 and 7.364 and 7.478 | FANCL normalized gene expression: 8.9359 and 8.968 and 8.918 | FAS normalized gene expression: 6.723 and 6.719 and 6.613 | FASLG normalized gene expression: 5.044 and 4.614 and 4.769 | FEN1 normalized gene expression: 11.0932 and 10.9634 and 10.9666 | FGF1 normalized gene expression: 4.723 and 4.524 and 5.098
